19 molecules from patent US12084472B2 (Ardelyx, Inc., priority 2015, dated 2024) can be followed below.

The structures appear in SMILES notation. A value given as a limit tells only on which side of the number the result lay.

This test deals with T1, human TGR5 (Homo sapiens, UniProt Q8TDU6).
T1 construct: expressed in transfected cells; host or cells: HEK293
T1 sequence (Q8TDU6 1-330): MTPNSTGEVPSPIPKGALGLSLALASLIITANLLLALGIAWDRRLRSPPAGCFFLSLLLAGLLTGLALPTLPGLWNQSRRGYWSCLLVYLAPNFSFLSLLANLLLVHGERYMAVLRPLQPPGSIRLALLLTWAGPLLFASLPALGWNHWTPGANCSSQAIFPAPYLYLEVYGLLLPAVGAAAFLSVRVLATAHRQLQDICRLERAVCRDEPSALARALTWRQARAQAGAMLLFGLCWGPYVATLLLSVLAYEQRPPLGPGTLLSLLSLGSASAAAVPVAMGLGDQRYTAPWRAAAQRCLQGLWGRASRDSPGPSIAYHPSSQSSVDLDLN
Put plainly: Cell-based TGR5 assay (cAMP generation, HTRF). As to conditions: HEK293 cells stably transfected with human TGR5; cAMP by HTRF; 30 minutes at 37° C.; read-out: pEC50 Human TGR5 (converted). The gist of the method:
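First, compounds in 3-fold serial dilution were placed in HBSS with 10 mM HEPES pH 7.4 and 0.5 mM IBMX. Next, human TGR5-expressing HEK293 cells were added and incubated 30 min at 37° C. Finally, cAMP was detected by HTRF and pEC50 derived by logistic fitting.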
Background: Time-resolved FRET reads energy transfer from a long-lived donor to a nearby acceptor.
Turning to `O=C1CCCN1CCCN(CCCSc1ccc(Cl)c(CNC2(c3cnccc3-c3ccccc3OC3CC3)CC2)c1)C(=O)[C@@H](O)[C@@H](O)[C@H](O)[C@@H](O)CO` [Compound I-529, (2S,3S,4R,5S)-N-[3-({4-chloro-3-[({1-[4-(2-cyclopropoxyphenyl)pyridin-3-yl]cyclopropyl}amino)methyl]phenyl}sulfanyl)propyl]-2,3,4,5,6-pentahydroxy-N-[3-(2-oxopyrrolidin-1-yl)propyl]hexanamide], the EC50 is 126 to 1000 nM.
For `O=C([C@@H](O)[C@@H](O)[C@H](O)[C@@H](O)CO)N(CCCSc1ccc(Cl)c(CNC2(c3cnccc3-c3ccccc3OC3CC3)CC2)c1)CCN1CCS(=O)(=O)CC1` [Compound I-530, (2S,3S,4R,5S)-N-[3-({4-chloro-3-[({1-[4-(2-cyclopropoxyphenyl)pyridin-3-yl]cyclopropyl)amino)methyl]phenyl}sulfanyl)propyl]-N-[2-(1,1-dioxo-1λ^6,4-thiomorpholin-4-yl)ethyl]-2,3,4,5,6-pentahydroxyhexanamide] the value was 126 to 1000 nM.
For `O=C1NCCN1CCN(CCCSc1ccc(Cl)c(CNC2(c3cnccc3-c3ccccc3OC3CC3)CC2)c1)C(=O)[C@@H](O)[C@@H](O)[C@H](O)[C@@H](O)CO` [Compound I-531, (2S,3S,4R,5S)-N-[3-({4-chloro-3-[({1-[4-(2-cyclopropoxyphenyl)pyridin-3-yl]cyclopropyl}amino)methyl]phenyl}sulfanyl)propyl]-2,3,4,5,6-pentahydroxy-N-[2-(2-oxoimidazolidin-1-yl)ethyl]hexanamide] the value was 126 to 1000 nM; for `CS(=O)(=O)CCCN(CCCCSc1ccc(Cl)c(CNC2(c3cnccc3-c3ccccc3OC3CC3)CC2)c1)C(=O)[C@@H](O)[C@@H](O)[C@H](O)[C@@H](O)CO` [Compound I-532, (2S,3S,4R,5S)-N-[4-({4-chloro-3-[({1-[4-(2-cyclopropoxyphenyl)pyridin-3-yl]cyclopropyl}amino)methyl]phenyl}sulfanyl)butyl]-2,3,4,5,6-pentahydroxy-N-(3-methanesulfonylpropyl) hexanamide], less than 100 nM; for `O=C([C@@H](O)[C@@H](O)[C@H](O)[C@@H](O)CO)N(CCCCSc1ccc(Cl)c(CNC2(c3cnccc3-c3ccccc3OC3CC3)CC2)c1)CCOCCO` [Compound I-533, (2S,3S,4R,5S)-N-[4-({4-chloro-3-[({1-[4-(2-cyclopropoxyphenyl)pyridin-3-yl]cyclopropyl}amino)methyl]phenyl}sulfanyl)butyl]-2,3,4,5,6-pentahydroxy-N-[2-(2-hydroxyethoxy)ethyl]hexanamide], less than 100 nM.
For `O=C([C@@H](O)[C@@H](O)[C@H](O)[C@@H](O)CO)N(CCCCO)CCCCSc1ccc(Cl)c(CNC2(c3cnccc3-c3ccccc3OC3CC3)CC2)c1` [Compound I-534, (2S,3S,4R,5S)-N-[4-({4-chloro-3-[({1-[4-(2-cyclopropoxyphenyl)pyridin-3-yl]cyclopropyl}amino)methyl]phenyl}sulfanyl)butyl]-2,3,4,5,6-pentahydroxy-N-(4-hydroxybutyl)hexanamide] the value was less than 100 nM; for `O=C([C@@H](O)[C@@H](O)[C@H](O)[C@@H](O)CO)N(CCCCSc1ccc(Cl)c(CNC2(c3cnccc3-c3ccccc3OC3CC3)CC2)c1)C1CCOCC1` [Compound I-535, (2S,3S,4R,5S)-N-[4-({4-chloro-3-[({1-[4-(2-cyclopropoxyphenyl)pyridin-3-yl]cyclopropyl}amino)methyl]phenyl}sulfanyl)butyl]-2,3,4,5,6-pentahydroxy-N-(oxan-4-yl)hexanamide], 126 to 1000 nM; for `O=C([C@@H](O)[C@@H](O)[C@H](O)[C@@H](O)CO)N(CCCCSc1ccc(Cl)c(CNC2(c3cnccc3-c3ccccc3OC3CC3)CC2)c1)CC1CCOCC1` [Compound I-536, (2S,3S,4R,5S)-N-[4-({4-chloro-3-[({1-[4-(2-cyclopropoxyphenyl)pyridin-3-yl]cyclopropyl}amino)methyl]phenyl}sulfanyl)butyl]-2,3,4,5,6-pentahydroxy-N-(oxan-4-ylmethyl)hexanamide], 126 to 1000 nM.
On to `Cc1ccc(SCCCN(CCCS(C)(=O)=O)C(=O)[C@@H](O)[C@@H](O)[C@H](O)[C@@H](O)CO)cc1COC1(c2cnccc2-c2ccccc2OC2CC2)CC1` [Compound I-537, (2S,3S,4R,5S)-N-(3-{[3-({1-[4-(2-cyclopropoxyphenyl)pyridin-3-yl]cyclopropoxy}methyl)-4-methylphenyl]sulfanyl}propyl)-2,3,4,5,6-pentahydroxy-N-(3-methanesulfonylpropyl) hexanamide], for which the EC50 was 126 to 1000 nM.
As for `Cc1ccc(SCCCN(CCOCCO)C(=O)[C@@H](O)[C@@H](O)[C@H](O)[C@@H](O)CO)cc1COC1(c2cnccc2-c2ccccc2OC2CC2)CC1` [Compound I-538, (2S,3S,4R,5S)-N-(3-{[3-({1-[4-(2-cyclopropoxyphenyl)pyridin-3-yl]cyclopropoxy}methyl)-4-methylphenyl]sulfanyl}propyl)-2,3,4,5,6-pentahydroxy-N-[2-(2-hydroxyethoxy)ethyl]hexanamide], the EC50 was 1260 to 10000 nM.
For `Cc1ccc(SCCCN(CCCCO)C(=O)[C@@H](O)[C@@H](O)[C@H](O)[C@@H](O)CO)cc1COC1(c2cnccc2-c2ccccc2OC2CC2)CC1` [Compound I-539, (2S,3S,4R,5S)-N-(3-{[3-({1-[4-(2-cyclopropoxyphenyl)pyridin-3-yl]cyclopropoxy}methyl)-4-methylphenyl]sulfanyl}propyl)-2,3,4,5,6-pentahydroxy-N-(4-hydroxybutyl)hexanamide] the value was 126 to 1000 nM; for `Cc1ccc(SCCCN(C(=O)[C@@H](O)[C@@H](O)[C@H](O)[C@@H](O)CO)C2CCOCC2)cc1COC1(c2cnccc2-c2ccccc2OC2CC2)CC1` [Compound I-540, (2S,3S,4R,5S)-N-(3-{[3-({1-[4-(2-cyclopropoxyphenyl)pyridin-3-yl]cyclopropoxy}methyl)-4-methylphenyl]sulfanyl}propyl)-2,3,4,5,6-pentahydroxy-N-(oxan-4-yl)hexanamide], 126 to 1000 nM; for `Cc1ccc(SCCCCN(CCCCO)C(=O)[C@@H](O)[C@@H](O)[C@H](O)[C@@H](O)CO)cc1COC1(c2cnccc2-c2ccccc2OC2CC2)CC1` [Compound I-541, (2S,3S,4R,5S)-N-(4-{[3-({1-[4-(2-cyclopropoxyphenyl)pyridin-3-yl]cyclopropoxy}methyl)-4-methylphenyl]sulfanyl}butyl)-2,3,4,5,6-pentahydroxy-N-(4-hydroxybutyl)hexanamide], 126 to 1000 nM.
`CN(CCSc1ccc(Cl)c(CNC2(c3cnccc3-c3ccccc3OC3CC3)CC2)c1)C(=O)[C@@H](O)[C@@H](O)[C@H](O)[C@@H](O)CO` [Compound I-542, (2S,3S,4R,5S)-N-[2-({4-chloro-3-[({1-[4-(2-cyclopropoxyphenyl)pyridin-3-yl]cyclopropyl}amino)methyl]phenyl}sulfanyl)ethyl]-2,3,4,5,6-pentahydroxy-N-methylhexanamide]: the EC50 was less than 100 nM.
For `O=C1NCCN1CCN(CCCSc1ccc(Cl)c(COC2(c3cnccc3-c3ccccc3OC3CC3)CC2)c1)C(=O)[C@@H](O)[C@@H](O)[C@H](O)[C@@H](O)CO` [Compound I-543, (2S,3S,4R,5S)-N-(3-{[4-chloro-3-({1-[4-(2-cyclopropoxyphenyl)pyridin-3-yl]cyclopropoxy}methyl)phenyl]sulfanyl}propyl)-2,3,4,5,6-pentahydroxy-N-[2-(2-oxoimidazolidin-1-yl)ethyl]hexanamide] the value was 126 to 1000 nM.
For `Cc1ccc(SCCCN(CCCS(C)(=O)=O)C(=O)[C@@H](O)[C@@H](O)[C@H](O)[C@@H](O)CO)cc1CNC1(c2cnccc2-c2ccccc2OC2CC2)CC1` [Compound I-544, (2S,3S,4R,5S)-N-[3-({3-[({1-[4-(2-cyclopropoxyphenyl)pyridin-3-yl]cyclopropyl}amino)methyl]-4-methylphenyl}sulfanyl)propyl]-2,3,4,5,6-pentahydroxy-N-(3-methanesulfonylpropyl) hexanamide] the value was 126 to 1000 nM.
For `Cc1ccc(SCCCN(CCOCCO)C(=O)[C@@H](O)[C@@H](O)[C@H](O)[C@@H](O)CO)cc1CNC1(c2cnccc2-c2ccccc2OC2CC2)CC1` [Compound I-545, (2S,3S,4R,5S)-N-[3-({3-[({1-[4-(2-cyclopropoxyphenyl)pyridin-3-yl]cyclopropyl}amino)methyl]-4-methylphenyl}sulfanyl)propyl]-2,3,4,5,6-pentahydroxy-N-[2-(2-hydroxyethoxy)ethyl]hexanamide], the EC50 was 126 to 1000 nM.
Take `Cc1ccc(SCCCN(CCCCO)C(=O)[C@@H](O)[C@@H](O)[C@H](O)[C@@H](O)CO)cc1CNC1(c2cnccc2-c2ccccc2OC2CC2)CC1` [Compound I-546, (2S,3S,4R,5S)-N-[3-({3-[({1-[4-(2-cyclopropoxyphenyl)pyridin-3-yl]cyclopropyl}amino)methyl]-4-methylphenyl}sulfanyl)propyl]-2,3,4,5,6-pentahydroxy-N-(4-hydroxybutyl) hexanamide]: the EC50 was 126 to 1000 nM.
For `Cc1ccc(SCCCN(C(=O)[C@@H](O)[C@@H](O)[C@H](O)[C@@H](O)CO)C2CCOCC2)cc1CNC1(c2cnccc2-c2ccccc2OC2CC2)CC1` [Compound I-547, (2S,3S,4R,5S)-N-[3-({3-[({1-[4-(2-cyclopropoxyphenyl)pyridin-3-yl]cyclopropyl}amino)methyl]-4-methylphenyl}sulfanyl)propyl]-2,3,4,5,6-pentahydroxy-N-(oxan-4-yl)hexanamide] the value was 1260 to 10000 nM.
